Test results reported in PubChem BioAssay AID977606 (Broad Institute, 2014).
Values joined by “and” are separate entries in the source; they are usually repeats but may differ in a detail not shown here. Identical values can stand only once. Active and inactive are the calls of the source. How the calls were made is not given here.

tested on: INS-1E Gaussia luciferase insulin secretion, no glucose, luminescence; assay: glucose-independent GLuc insulin release activation – cell-based, INS-1E, Gaussia luciferase, luminescence, cherry-pick, counter-screen for glucose-dependent insulin secretion activators, dose response (AID 977606)

Row | Compound | AC40
1 | CC(C)(C)c1ccc(OCC(=O)Nc2ccc(-c3nc4cccnc4o3)cc2)cc1 | 7.74 µM
2 | Cc1ccc(-c2ccc(C3[C@@H]4CN(C(=O)Nc5ccc(C(F)(F)F)cc5)C[C@H]3N4)cc2)cc1 (some centres not stated) | 1.17 µM and 2.2 µM
3 | Cc1cc(C)cc(OCCCN2CCC(C(O)(c3ccccc3)c3ccccc3)CC2)c1 | 6.87 µM
4 | Cc1cc2c(cc1C)CSC(c1c(O)ccc3ccccc13)SC2 | 17.9 µM
5 | O=C(OCC12CC3CC(CC(C3)C1)C2)c1ccc(NCc2cc(O)ccc2O)cc1 | 9.2 µM
6 | CCCCc1c(-c2ccc(F)cc2F)ncn1CCc1ccccc1OC | 5.38 µM
7 | CCOC(=O)c1cc2sccc2n1CC(=O)N1c2ccccc2CC1C (configuration not stated) | 5.99 µM
8 | O=C(Nc1ccc(C(F)(F)F)cc1)N1C[C@@H]2N[C@H](C1)C2c1ccc(-c2ccccc2)cc1 (some centres not stated) | 8.46 µM
9 | C=CCNC(=S)N/N=C/c1ccc(-c2cc(Cl)ccc2Cl)o1 | 4.34 µM
10 | O=S(=O)(c1ccccc1F)N1C[C@@H]2N[C@H](C1)C2c1ccc(/C=C/c2ccccc2)cc1 (some centres not stated) | 7.12 µM
11 | N#Cc1cccc(Oc2ccc(-c3cnc4ccccc4n3)cc2)c1C#N | 9.37 µM
12 | O=C(Cn1c(COc2ccccc2)nc2ccccc21)Nc1cc(Cl)cc(Cl)c1 | 5.2 µM
13 | O=C(NCC1OCCc2ccccc21)c1ccc(NC(=O)c2ccc(Cl)cc2Cl)cc1 (configuration not stated) | 17.9 µM
14 | CCOC(=O)c1cnc2c(Cl)c(Cl)ccc2c1NCCN1CCOCC1 | 26.5 µM
15 | O=C(Nc1cccnc1)/C(N=Nc1cccnc1)=C(\O)c1ccccc1 | > 35 µM (inactive)
16 | Cc1ccc(-c2n[nH]c(=S)n2/N=C/c2c(C)nn(-c3ccccc3)c2C)cc1 | 6.5 µM
17 | Cc1cc(C(F)F)n2ncc(C(=O)NCc3ccc(F)cc3)c2n1 | > 35 µM (inactive)
18 | CN(C)CCOc1ccc(-c2c(-c3ccsc3)sc3ccccc23)cc1 | 5.7 µM
19 | CC(C)(C(=O)N1CCC1(C)C(=O)NS(=O)(=O)c1cccc(Cl)c1)c1ccccc1 (configuration not stated) | 3.65 µM
20 | C=CCNc1nc(Cl)nc(Nc2ccc(OC)cc2)n1 | 11.3 µM
21 | CCOC(=O)c1[nH]c2cc(OC)c(OC)cc2c1NC(=O)c1ccc2c(c1)OCO2 | 15.6 µM
22 | O=C(NCC1OCCc2ccccc21)c1ccc(NC(=O)c2cccc(Br)c2)cc1 (configuration not stated) | 11.1 µM
23 | O=C(Nc1ccc2ccccc2c1)c1cccc2ccccc12 | 3.25 µM
24 | Cc1ccc(SC[C@H](C)CN2CC[C@H](C(C)(C)C)CCC2=O)cc1 | 4.93 µM
25 | CNC[C@@H](Cc1ccccc1)NC[C@@H](CC1CCCCC1)NCCCc1ccccc1 | 13.1 µM
26 | CCOC(=O)Nc1cccc(OCC(=O)Nc2ccc3c(c2)CCC3)c1 | 8.25 µM

Row | Compound | AC40
27 | COc1ccc2c(c1)C(=NNC(=O)c1ccccn1)c1cc(OC)ccc1-2 | 2.66 µM
28 | COc1ccc(NC(=O)c2sc3nc(N4CCOCC4)c4c(c3c2N)CC(C)(C)OC4)c(OC)c1 | 6.06 µM
29 | COc1cc(OC)c2c3c(c(C4CCCCC4)nc2c1)CCC3 | 7.44 µM
30 | CCCc1cc(-c2nc(-c3ccc(C)cc3)cs2)ccn1 | 7.92 µM
31 | COc1cc(CN2[C@@H]3CNC[C@H]2C3c2ccc(/C=C/c3ccccc3)cc2)cc(OC)c1 (some centres not stated) | 9.7 µM
32 | CCCCCCCCN1C(=O)[C@@H](CC(=O)N2CCN(C(=O)c3ccco3)CC2)C[C@@]2(C(=O)OC)C1=C[C@H](C1CCCC1)O[C@@H]2C | 9.46 µM
33 | Cc1ccc2sc(-c3ccc(NC(=O)c4cc(-n5cnnc5)ccc4Cl)cc3)nc2c1 | 8.4 µM
34 | OC(c1ccccc1)(c1ccccc1)C1CCN(CCCOc2ccc(-c3ccsc3)cc2)CC1 | 9.65 µM
35 | CC(C)(C)c1nc2ccc(Cl)cn2c1CC1CCCCC1 | 13.2 µM
36 | CC(C)C(Cl)=NOC(=O)Nc1ccc(S(N)(=O)=O)cc1 | 4.58 µM
37 | O=C(CCN1CCOCC1)c1ccccc1 | 10.3 µM
38 | CC(C)COc1ccc(Br)cc1CNC(C)(C)C | > 35 µM (inactive)
39 | CC(C)C[C@H](NC(=O)c1nc[nH]c1C(=O)NC1CCN(C(=O)OC(C)(C)C)CC1)C(=O)OC(C)(C)C | 26.4 µM
40 | Cc1ccc(S(=O)(=O)C=CS(=O)(=O)c2ccc(C)cc2)cc1 | 0.228 µM
41 | CN(Cc1c(C(=O)N/N=C/c2ccccc2O)nnn1-c1nonc1N)C1CCCCC1 | 5.83 µM
42 | Cc1ccc2nc(-c3ccc(NC(=O)COC(=O)c4ccco4)cc3)sc2c1 | 3.8 µM
43 | N/C(=N\OC(=O)COc1ccc(Cl)cc1Cl)c1cccnc1 | 19.3 µM
44 | CN(C)c1ncnc2sc(-c3ccccc3)cc12 | 30.3 µM
45 | COCc1[nH]nc2c1C(c1ccc(C)cc1)NC2=O (configuration not stated) | 28.5 µM
46 | COC(=O)C1=C(C)N(C)C(=NCc2cccc(C(F)(F)F)c2)NC1c1ccc(C(F)(F)F)cc1 (configuration not stated) | 4.7 µM
47 | O=C(Nc1cccc(Cl)c1)Nc1nc(-c2ccc(Cl)cc2)cs1 | > 35 µM (inactive)
48 | CC(C)(C)C1CCc2c(sc(NC(=O)c3cccs3)c2C(N)=O)C1 (configuration not stated) | 16.5 µM
49 | CCCCCc1cc(=O)oc2c(C(CCN3CCCC(C)C3)c3ccc(OC)cc3)c(OC)cc(OC)c12 (configuration not stated) | 8.58 µM
50 | CCOC(=O)CN1C(=O)[C@]2(OCCC=C[C@H]2C)c2ccccc21 | 13 µM
51 | COc1ccc(C[C@H]2CN3C(=NC[C@@H]3Cc3ccccc3)N2CCNC(=O)CCC2CCCCC2)cc1 | 13.5 µM
52 | COc1ccc(-c2cc3ccccc3oc2=O)cc1NC(=S)NC(=O)c1ccc2c(c1)OCCO2 | 1.2 µM
